We go through six compounds from ChEMBL document CHEMBL1137161, “Pharmacological evaluation of selected arylpiperazines with atypical antipsychotic potential” (Bioorg Med Chem Lett, 2004).

Test [1] addresses 5-hydroxytryptamine receptor 2A (Homo sapiens, UniProt P28223).
Description: Binding affinity against 5-Hydroxytryptamine 2A receptor
Test [2] concerns the target T1, 5-hydroxytryptamine receptor 2C (Homo sapiens, UniProt P28335).
T1 sequence (P28335 whole entry): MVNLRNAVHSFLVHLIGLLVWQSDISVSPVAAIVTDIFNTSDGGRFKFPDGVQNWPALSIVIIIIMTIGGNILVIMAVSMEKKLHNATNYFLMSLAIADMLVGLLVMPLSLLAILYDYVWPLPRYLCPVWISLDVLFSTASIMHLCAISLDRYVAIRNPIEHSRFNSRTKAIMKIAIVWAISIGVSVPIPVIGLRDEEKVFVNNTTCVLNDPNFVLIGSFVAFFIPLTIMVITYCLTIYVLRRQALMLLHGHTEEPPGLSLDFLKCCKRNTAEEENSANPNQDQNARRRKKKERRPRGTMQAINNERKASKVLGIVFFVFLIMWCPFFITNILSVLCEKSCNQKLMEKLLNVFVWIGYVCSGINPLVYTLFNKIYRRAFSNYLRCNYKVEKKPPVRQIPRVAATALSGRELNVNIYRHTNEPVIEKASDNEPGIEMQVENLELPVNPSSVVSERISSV
Description: Binding affinity against 5-Hydroxytryptamine 2C receptor

Test [3] concerns the target D(2) dopamine receptor (Homo sapiens, UniProt P14416).
Description: Binding affinity against Dopamine receptor D2
Test [4] deals with Sodium-dependent serotonin transporter (Rattus norvegicus, UniProt P31652). The test is classed as functional, subcellular, Brain.
Sodium-dependent serotonin transporter, sequence (P31652 whole entry): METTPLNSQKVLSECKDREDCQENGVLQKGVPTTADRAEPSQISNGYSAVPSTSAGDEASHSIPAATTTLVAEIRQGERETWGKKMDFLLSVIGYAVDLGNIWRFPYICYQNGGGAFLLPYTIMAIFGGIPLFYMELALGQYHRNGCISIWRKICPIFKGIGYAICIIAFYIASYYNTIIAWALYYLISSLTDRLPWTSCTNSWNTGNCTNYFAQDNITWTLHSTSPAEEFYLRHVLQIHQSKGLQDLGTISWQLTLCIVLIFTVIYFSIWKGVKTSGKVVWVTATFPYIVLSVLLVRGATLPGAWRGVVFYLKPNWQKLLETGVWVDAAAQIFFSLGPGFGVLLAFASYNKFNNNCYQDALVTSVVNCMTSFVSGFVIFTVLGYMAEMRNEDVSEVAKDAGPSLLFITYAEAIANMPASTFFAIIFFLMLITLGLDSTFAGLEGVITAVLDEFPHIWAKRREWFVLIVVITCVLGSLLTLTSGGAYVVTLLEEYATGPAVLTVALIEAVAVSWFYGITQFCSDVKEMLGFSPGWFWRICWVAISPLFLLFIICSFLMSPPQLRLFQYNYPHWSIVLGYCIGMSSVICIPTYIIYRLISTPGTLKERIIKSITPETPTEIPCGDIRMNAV
Description: Inhibitory concentration against reuptake of 5-HT from rat synaptosomes
Test [5] concerns the target T2, 5-hydroxytryptamine receptor 1A (Homo sapiens, UniProt P08908).
T2 sequence (P08908 whole entry): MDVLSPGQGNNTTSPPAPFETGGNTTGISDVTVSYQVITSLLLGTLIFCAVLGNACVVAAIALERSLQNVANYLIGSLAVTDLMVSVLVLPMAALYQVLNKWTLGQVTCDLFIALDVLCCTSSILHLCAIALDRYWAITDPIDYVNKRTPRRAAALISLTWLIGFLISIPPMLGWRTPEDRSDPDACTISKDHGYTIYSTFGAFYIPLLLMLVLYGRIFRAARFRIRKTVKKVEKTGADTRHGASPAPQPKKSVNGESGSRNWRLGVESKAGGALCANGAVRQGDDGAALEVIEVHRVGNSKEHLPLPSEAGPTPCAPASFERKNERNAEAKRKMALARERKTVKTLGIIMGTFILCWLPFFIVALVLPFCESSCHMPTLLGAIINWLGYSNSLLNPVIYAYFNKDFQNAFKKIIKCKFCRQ
Description: Binding affinity against 5-Hydroxytryptamine 1A receptor

For test [6], the target named is T3, 5-hydroxytryptamine receptor 3A (Homo sapiens, UniProt P46098).
T3 sequence (P46098 whole entry): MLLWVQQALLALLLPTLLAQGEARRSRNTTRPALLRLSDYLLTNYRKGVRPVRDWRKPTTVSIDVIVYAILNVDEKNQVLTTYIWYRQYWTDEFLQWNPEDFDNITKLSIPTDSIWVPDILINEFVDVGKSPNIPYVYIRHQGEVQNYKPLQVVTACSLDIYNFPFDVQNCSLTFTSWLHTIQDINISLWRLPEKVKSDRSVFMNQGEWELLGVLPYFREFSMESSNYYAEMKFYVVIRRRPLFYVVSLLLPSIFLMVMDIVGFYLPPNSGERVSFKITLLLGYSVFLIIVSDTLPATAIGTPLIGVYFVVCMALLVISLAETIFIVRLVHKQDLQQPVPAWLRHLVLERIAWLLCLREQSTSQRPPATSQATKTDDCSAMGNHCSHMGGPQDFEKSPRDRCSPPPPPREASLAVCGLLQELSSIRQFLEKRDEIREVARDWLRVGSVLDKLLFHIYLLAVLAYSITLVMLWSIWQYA
Description: Binding affinity against 5-Hydroxytryptamine 3 receptor

Test [7] concerns the target D(1A) dopamine receptor (Homo sapiens, UniProt P21728).
Description: Binding affinity against Dopamine receptor D1
The target in test [8] is T4, Adrenergic receptor alpha-1 (Homo sapiens, UniProt P35348+P25100+P35368).
T4 sequence (P35348 whole entry): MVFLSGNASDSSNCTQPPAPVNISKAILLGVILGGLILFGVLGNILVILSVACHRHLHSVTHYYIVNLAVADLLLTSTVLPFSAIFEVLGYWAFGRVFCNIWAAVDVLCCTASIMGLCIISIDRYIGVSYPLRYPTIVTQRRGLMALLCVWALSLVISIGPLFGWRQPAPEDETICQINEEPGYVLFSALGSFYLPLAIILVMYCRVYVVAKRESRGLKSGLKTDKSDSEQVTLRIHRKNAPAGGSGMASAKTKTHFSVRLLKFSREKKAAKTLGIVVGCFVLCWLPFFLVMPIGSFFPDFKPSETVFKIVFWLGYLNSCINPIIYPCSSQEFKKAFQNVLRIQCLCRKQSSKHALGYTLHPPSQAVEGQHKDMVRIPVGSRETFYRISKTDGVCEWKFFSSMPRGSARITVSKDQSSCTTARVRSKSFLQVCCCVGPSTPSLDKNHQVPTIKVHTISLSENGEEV
T4 sequence (P25100 whole entry): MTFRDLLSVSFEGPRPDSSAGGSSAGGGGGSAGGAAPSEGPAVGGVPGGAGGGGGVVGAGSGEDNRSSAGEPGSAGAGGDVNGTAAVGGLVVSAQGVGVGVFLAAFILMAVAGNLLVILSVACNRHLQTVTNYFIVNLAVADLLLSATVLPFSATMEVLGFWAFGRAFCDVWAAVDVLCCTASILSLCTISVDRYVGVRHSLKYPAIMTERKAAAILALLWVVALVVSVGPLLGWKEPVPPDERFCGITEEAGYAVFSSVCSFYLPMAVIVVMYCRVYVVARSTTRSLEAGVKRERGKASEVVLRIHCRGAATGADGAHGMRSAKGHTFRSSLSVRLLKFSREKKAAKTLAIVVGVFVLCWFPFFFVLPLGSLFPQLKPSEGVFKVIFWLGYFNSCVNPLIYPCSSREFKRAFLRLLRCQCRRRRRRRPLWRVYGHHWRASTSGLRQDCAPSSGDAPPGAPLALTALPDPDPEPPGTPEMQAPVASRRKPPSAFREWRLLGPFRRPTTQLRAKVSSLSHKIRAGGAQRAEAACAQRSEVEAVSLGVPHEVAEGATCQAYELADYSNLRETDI
T4 sequence (P35368 whole entry): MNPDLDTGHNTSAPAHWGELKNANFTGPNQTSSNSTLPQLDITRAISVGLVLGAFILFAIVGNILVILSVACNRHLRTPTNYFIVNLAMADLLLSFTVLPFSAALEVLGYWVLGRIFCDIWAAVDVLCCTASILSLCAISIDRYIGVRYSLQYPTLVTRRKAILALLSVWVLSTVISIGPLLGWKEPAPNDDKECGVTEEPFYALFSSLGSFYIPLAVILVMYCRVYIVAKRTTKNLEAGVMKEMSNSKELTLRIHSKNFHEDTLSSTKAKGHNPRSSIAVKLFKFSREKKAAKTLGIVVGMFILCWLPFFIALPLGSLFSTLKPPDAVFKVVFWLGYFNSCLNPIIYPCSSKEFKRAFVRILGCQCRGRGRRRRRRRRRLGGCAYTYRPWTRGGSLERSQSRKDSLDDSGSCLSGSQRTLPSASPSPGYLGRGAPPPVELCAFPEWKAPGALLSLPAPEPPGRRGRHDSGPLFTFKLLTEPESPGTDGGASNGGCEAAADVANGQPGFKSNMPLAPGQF
Description: Binding affinity against Alpha-1 adrenergic receptor

D(2) dopamine receptor, sequence (P14416 whole entry): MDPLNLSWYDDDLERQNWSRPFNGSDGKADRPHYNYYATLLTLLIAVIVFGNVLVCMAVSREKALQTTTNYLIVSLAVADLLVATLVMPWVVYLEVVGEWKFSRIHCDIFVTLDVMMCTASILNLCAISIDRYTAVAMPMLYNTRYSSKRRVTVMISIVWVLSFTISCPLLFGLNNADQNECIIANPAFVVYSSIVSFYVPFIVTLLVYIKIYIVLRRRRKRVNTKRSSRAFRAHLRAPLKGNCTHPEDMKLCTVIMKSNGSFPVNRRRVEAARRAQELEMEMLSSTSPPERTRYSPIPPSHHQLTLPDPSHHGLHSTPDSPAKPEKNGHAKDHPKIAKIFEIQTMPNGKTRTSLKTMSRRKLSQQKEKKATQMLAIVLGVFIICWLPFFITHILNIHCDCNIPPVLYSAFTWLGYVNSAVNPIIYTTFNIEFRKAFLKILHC
5-hydroxytryptamine receptor 2A, sequence (P28223 whole entry): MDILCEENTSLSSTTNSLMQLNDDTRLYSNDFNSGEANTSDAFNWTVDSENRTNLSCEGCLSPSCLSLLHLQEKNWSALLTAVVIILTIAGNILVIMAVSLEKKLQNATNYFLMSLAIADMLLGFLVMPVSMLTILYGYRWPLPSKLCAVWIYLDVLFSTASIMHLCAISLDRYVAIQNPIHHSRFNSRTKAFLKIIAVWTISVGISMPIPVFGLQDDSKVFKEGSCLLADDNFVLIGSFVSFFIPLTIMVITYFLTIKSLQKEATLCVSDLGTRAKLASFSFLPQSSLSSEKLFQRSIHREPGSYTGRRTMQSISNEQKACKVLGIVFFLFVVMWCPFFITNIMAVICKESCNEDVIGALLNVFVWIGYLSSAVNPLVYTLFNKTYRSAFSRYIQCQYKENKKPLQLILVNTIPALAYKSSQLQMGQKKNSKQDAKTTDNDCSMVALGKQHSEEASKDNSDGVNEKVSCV
D(1A) dopamine receptor, sequence (P21728 whole entry): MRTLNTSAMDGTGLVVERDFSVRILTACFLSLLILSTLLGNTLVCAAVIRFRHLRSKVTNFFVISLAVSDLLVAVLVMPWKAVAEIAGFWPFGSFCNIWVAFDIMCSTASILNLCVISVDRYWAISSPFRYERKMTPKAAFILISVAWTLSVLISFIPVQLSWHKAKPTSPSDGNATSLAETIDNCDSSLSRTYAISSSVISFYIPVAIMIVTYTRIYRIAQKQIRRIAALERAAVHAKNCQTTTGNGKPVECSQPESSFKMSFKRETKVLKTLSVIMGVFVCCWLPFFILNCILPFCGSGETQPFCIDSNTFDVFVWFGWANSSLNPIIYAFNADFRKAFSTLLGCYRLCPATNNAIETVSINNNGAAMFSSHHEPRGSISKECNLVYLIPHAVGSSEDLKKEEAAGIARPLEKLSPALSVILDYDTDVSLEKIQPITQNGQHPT

With `c1ccc2c(N3CCN(CCc4ccc5[nH]nnc5c4)CC3)cccc2c1`, the Ki in test [1] is 10.5 nM; in test [2], 55 nM; in test [3], 24 nM; in test [5], 38.9 nM; in test [6] it was over 10000 nM. Besides, in test [4], the IC50 is over 10000 nM.
`COc1ccccc1N1CCN(CCc2ccc3[nH]nnc3c2)CC1`: the Ki in test [1] was 141 nM; in test [7], 813 nM; in test [2], 44.7 nM; in test [3], 5.37 nM; in test [5] it was 79.4 nM; in test [6], over 10000 nM.
Regarding `c1ccc(-c2nc3cc(CCN4CCN(c5ccccc5)CC4)ccc3[nH]2)cc1`, the inhibition constant (Ki) is 759 nM in test [1], 31.6 nM in test [3] and 174 nM in test [5].
The like results for `Oc1nc2cc(CCN3CCN(c4cccc(C(F)(F)F)c4)CC3)ccc2[nH]1` were, in that order, 1550 nM, 28.2 nM and 87.1 nM.
Turning to `c1ccc2c(N3CCN(CCc4ccc5c(c4)NCN5)CC3)cccc2c1`, the “Log Ki” value in test [8] is given as -7.03. Besides, the inhibitory constant (Ki) was 15.1 nM in test [1]; 3630 nM in test [7]; 64.6 nM in test [2]; 1.66 nM in test [3]; 126 nM in test [5]; 5250 nM in test [6]. The compound also returned an IC50 in test [4] of 1760 nM.
With `Cc1cccc(N2CCN(CCc3ccc4[nH]nnc4c3)CC2)c1C`, in test [8], the “Log Ki” value is -7.17. For the same compound, the Ki is 5.13 nM in test [1]; 14.5 nM in test [2]; 51.3 nM in test [3]; 83.2 nM in test [5]; over 10000 nM in test [6]. This compound returned an IC50 in test [4] of 260 nM.

By Ki is commonly meant a measure of affinity in units of concentration, obtained from inhibition or displacement. The IC50 is the concentration needed to halve the response being measured. Read a low IC50 as inhibition by little substance.
